Laboratory results as given in PubChem BioAssay (NCI).
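Grown in 96-well plates, cells were treated for 48 hours with each compound at five concentrations. Insufficient inhibition: endpoint recorded as highest concentration tested. GI50 = concentration required for 50% inhibition of growth. At the TGI there is no net growth.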

tested on: SN12C renal; experiment: growth of human tumour cells (NCI), 48 h

SMILES	GI50	TGI
C=CCn1c(SCC(=O)Nc2ccc(C(=O)/C=C/c3cc(OC)c(OC)c(OC)c3)cc2)nnc1-c1ccc(OC)cc1	0.839 µM	19.1 µM
C=C1C(O)C2C(=C(C)C13CC3)C(=O)C(C)(C)C2OC (stereo unspecified)	> 100 µM	> 100 µM
COc1cc(C(=O)O[C@H](C(N)=O)[C@]2(C)CO2)c2cccc(C)c2c1	< 0.01 µM	0.245 µM
O=C(Nc1ccc(Cl)cc1)Nc1nccs1	5.22 µM	> 100 µM
Cc1sc2c(c1C)C(c1ccc(Cl)cc1)=N[C@@H](CC(=O)Nc1ccc(OCCOCCOCCOCCNc3cccc4c3C(=O)N(C3CCC(=O)NC3=O)C4=O)cc1)c1nnc(C)n1-2 (stereo partly specified)		> 100 µM
NCCCOc1cc2ccccc2cc1C(=O)NCCCOc1cc2ccccc2cc1C(=O)Nc1ccc(Cl)cc1O	1.73 µM	3.83 µM
O=C1/C(=C/N2N=C(c3ccc4ccccc4c3)CC2c2ccccc2O)SC(=S)N1c1cccnc1 (stereo unspecified)	2.22 µM	> 100 µM
c1ccc2c(c1)c1ccccc1c1ccccc21	> 100 µM	> 100 µM
Cc1c2c(C(N)=O)nccc2c(C)c2c1c1ccccc1n2Cc1ccccc1		44.8 µM

tested on: SNB-19 CNS; experiment: growth of human tumour cells (NCI), 48 h

SMILES	GI50	TGI
COc1ccc(-c2nn(-c3cccc(Cl)c3)cc2-c2nc(N)[nH]c(=O)c2C#N)cc1	4.58 µM	> 100 µM
COC(=O)C(=O)CC(=O)c1cccc(OC)c1		> 100 µM
COc1cc2c3c(n(CCCN(CCO)CCO)c(=O)c2cc1OC)-c1cc2c(cc1C3=O)OCO2	0.603 µM	> 35.5 µM
CNCCn1c(=O)c2cc(OC)c(OC)cc2c2cnc3cc4c(cc3c21)OCO4	< 0.01 µM	2.28 µM
Cn1cc(S(=O)(=O)N2CCC3=Cc4c(cnn4-c4ccc(F)cc4)C[C@]3(C(=O)c3cc(C(F)(F)F)ccn3)C2)cn1	> 100 µM	> 100 µM
COc1ccc2c(c1)C(C)Cc1c(ncnc1-n1cnc3ccccc31)N2C (stereo unspecified)	0.695 µM	27.5 µM
NCCCn1c2c(c3ccccc3c1=O)C(=O)c1ccccc1-2	0.0857 µM	3.43 µM
COc1ccc(/C=C/c2cnccn2)cc1OC		> 10 µM
O=C(NC1CCCCC1)c1ccc(Nc2ncnc3c2cnn3-c2ccccc2)cc1	3.82 µM	18.9 µM
N#CC(C#N)=C1CCCOc2c1ccc1ccccc21	94.3 µM	> 100 µM
COc1cc2c3c(n(CCCN(C)CCO)c(=O)c2cc1OC)-c1cc2c(cc1C3=O)OCO2	8.32 µM	> 100 µM
C=CCn1c(SCC(=O)Nc2ccc(C(=O)/C=C/c3cc(OC)c(OC)c(OC)c3)cc2)nnc1-c1ccc(OC)cc1	0.59 µM	11.8 µM
C=C1C(O)C2C(=C(C)C13CC3)C(=O)C(C)(C)C2OC (stereo unspecified)	> 100 µM	> 100 µM
COc1cc(C(=O)O[C@H](C(N)=O)[C@]2(C)CO2)c2cccc(C)c2c1	1.21 µM	5.02 µM
O=C(Nc1ccc(Cl)cc1)Nc1nccs1	3.67 µM	> 100 µM
Cc1sc2c(c1C)C(c1ccc(Cl)cc1)=N[C@@H](CC(=O)Nc1ccc(OCCOCCOCCOCCNc3cccc4c3C(=O)N(C3CCC(=O)NC3=O)C4=O)cc1)c1nnc(C)n1-2 (stereo partly specified)	< 0.0301 µM	> 100 µM
NCCCOc1cc2ccccc2cc1C(=O)NCCCOc1cc2ccccc2cc1C(=O)Nc1ccc(Cl)cc1O	0.72 µM	2.88 µM
O=C1/C(=C/N2N=C(c3ccc4ccccc4c3)CC2c2ccccc2O)SC(=S)N1c1cccnc1 (stereo unspecified)	3.85 µM	> 100 µM
c1ccc2c(c1)c1ccccc1c1ccccc21	> 100 µM	> 100 µM
Cc1c2c(C(N)=O)nccc2c(C)c2c1c1ccccc1n2Cc1ccccc1		51.2 µM
NC(=O)CNc1ccc([As]=[As]c2ccc(NCC(N)=O)cc2)cc1 (stereo unspecified)	4.7 µM	18.2 µM

tested on: UACC-257 melanoma; experiment: growth of human tumour cells (NCI), 48 h

SMILES	GI50	TGI
COc1ccc(-c2nn(-c3cccc(Cl)c3)cc2-c2nc(N)[nH]c(=O)c2C#N)cc1	5.69 µM	47.3 µM
COC(=O)C(=O)CC(=O)c1cccc(OC)c1		> 100 µM
COc1cc2c3c(n(CCCN(CCO)CCO)c(=O)c2cc1OC)-c1cc2c(cc1C3=O)OCO2	1.55 µM	> 22.5 µM
CNCCn1c(=O)c2cc(OC)c(OC)cc2c2cnc3cc4c(cc3c21)OCO4	0.0267 µM	5.66 µM
Cn1cc(S(=O)(=O)N2CCC3=Cc4c(cnn4-c4ccc(F)cc4)C[C@]3(C(=O)c3cc(C(F)(F)F)ccn3)C2)cn1	> 100 µM	> 100 µM
COc1ccc2c(c1)C(C)Cc1c(ncnc1-n1cnc3ccccc31)N2C (stereo unspecified)	13.6 µM	26.6 µM
NCCCn1c2c(c3ccccc3c1=O)C(=O)c1ccccc1-2	0.544 µM	2.19 µM
COc1ccc(/C=C/c2cnccn2)cc1OC		> 10 µM
O=C(NC1CCCCC1)c1ccc(Nc2ncnc3c2cnn3-c2ccccc2)cc1	6.42 µM	> 100 µM
COc1cc2c3c(n(CCCN(C)CCO)c(=O)c2cc1OC)-c1cc2c(cc1C3=O)OCO2	> 62.6 µM	> 100 µM
C=C1C(O)C2C(=C(C)C13CC3)C(=O)C(C)(C)C2OC (stereo unspecified)	44.4 µM	> 100 µM
COc1cc(C(=O)O[C@H](C(N)=O)[C@]2(C)CO2)c2cccc(C)c2c1	1.49 µM	> 21.3 µM
Cc1sc2c(c1C)C(c1ccc(Cl)cc1)=N[C@@H](CC(=O)Nc1ccc(OCCOCCOCCOCCNc3cccc4c3C(=O)N(C3CCC(=O)NC3=O)C4=O)cc1)c1nnc(C)n1-2 (stereo partly specified)	10.6 µM	> 100 µM
NCCCOc1cc2ccccc2cc1C(=O)NCCCOc1cc2ccccc2cc1C(=O)Nc1ccc(Cl)cc1O	1.23 µM	2.59 µM
c1ccc2c(c1)c1ccccc1c1ccccc21	> 100 µM	> 100 µM
Cc1c2c(C(N)=O)nccc2c(C)c2c1c1ccccc1n2Cc1ccccc1		> 100 µM
NC(=O)CNc1ccc([As]=[As]c2ccc(NCC(N)=O)cc2)cc1 (stereo unspecified)	12.4 µM	39.6 µM
